Results on two compounds are retold here after US7470706B2, “Cycloalkyl-substituted 7-amino-4-quinolone-3-carboxylic acid derivatives, process for their preparation and their use as medicaments” (Sanofi-Aventis Deutschland GmbH, priority 2004, dated 2008).

The assay addresses T1, human glycogen phosphorylase a (Homo sapiens, UniProt P06737).
T1 sequence (P06737 1-847): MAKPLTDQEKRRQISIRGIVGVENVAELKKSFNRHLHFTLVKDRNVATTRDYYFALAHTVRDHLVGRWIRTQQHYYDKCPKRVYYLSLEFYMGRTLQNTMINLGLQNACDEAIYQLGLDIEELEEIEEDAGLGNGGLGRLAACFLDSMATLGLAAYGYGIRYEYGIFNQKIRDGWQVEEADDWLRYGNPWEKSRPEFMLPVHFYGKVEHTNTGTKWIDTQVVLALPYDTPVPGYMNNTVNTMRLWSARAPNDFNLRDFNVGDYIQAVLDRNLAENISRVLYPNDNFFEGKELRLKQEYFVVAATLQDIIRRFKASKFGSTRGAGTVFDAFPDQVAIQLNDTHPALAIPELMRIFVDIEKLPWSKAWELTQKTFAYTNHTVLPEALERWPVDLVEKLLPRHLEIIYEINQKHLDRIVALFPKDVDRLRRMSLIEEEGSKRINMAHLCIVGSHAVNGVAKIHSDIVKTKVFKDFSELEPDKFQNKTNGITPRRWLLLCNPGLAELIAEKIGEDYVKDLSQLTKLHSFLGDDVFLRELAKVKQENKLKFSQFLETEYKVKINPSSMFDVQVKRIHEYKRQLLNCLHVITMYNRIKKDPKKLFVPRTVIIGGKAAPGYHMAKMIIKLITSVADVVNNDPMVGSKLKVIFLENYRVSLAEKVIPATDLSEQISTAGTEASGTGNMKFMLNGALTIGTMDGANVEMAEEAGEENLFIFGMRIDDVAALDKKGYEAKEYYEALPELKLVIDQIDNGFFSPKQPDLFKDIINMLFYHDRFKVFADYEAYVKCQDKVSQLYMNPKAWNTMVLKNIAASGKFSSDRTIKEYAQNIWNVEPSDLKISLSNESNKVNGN
As to the kind of experiment: Glycogen phosphorylase a activity assay. Type of assay: biochemical. As to conditions: 10 μM test substance; reverse direction (glycogen synthesis from glucose 1-phosphate), inorganic phosphate liberation. As for the experimental part: Glycogen Phosphorylase a Activity Assay
The effect of compounds on the activity of the active form of glycogen phosphorylase (GPa) was measured in the reverse direction by following the synthesis of glycogen from glucose 1-phosphate by determining the liberation of inorganic phosphate. All the reactions were carried out as duplicate determinations in microtiter plates with 96 wells (Half Area Plates, Costar No 3696), measuring the change in absorption owing to the formation of the reaction product at the wavelength specified hereinafter in a Multiskan Ascent Elisa Reader (Lab Systems, Finland).
In order to measure the GPa enzymic activity in the reverse direction, the general method of Engers et al. (Engers H D, Shechosky S, Madsen N B, Can J Biochem 1970 July; 48(7):746-754) was used to measure the conversion of glucose 1-phosphate into glycogen and inorganic phosphate, with the following modifications: human glycogen phosphorylase a (for example with 0.76 mg of protein/ml (Aventis Pharma Deutschland GmbH), dissolved in buffer solution E (25 mM β-glycerophosphate, pH 7.0, 1 mM EDTA and 1 mM dithiothreitol) was diluted with buffer T (50 mM Hepes, pH 7.0, 100 mM KCl, 2.5 mM EDTA, 2.5 mM MgCl2.6H2O) and addition of 5 mg/ml glycogen to a concentration of 10 μg of protein/ml. […] After incubation at 45° C. for 60 minutes, the absorption at 820 nm was measured. […]

As to `C#CC1(Nc2cc3c(=O)c(C(=O)OCC)cn(CC)c3nc2C)CCCCC1` [Example 2], the inhibition at 10 µM amounted to 42%.

Turning to `C#CC1(Nc2cc3c(=O)c(C(=O)O)cn(CC)c3nc2C)CCCCC1` [Example 3, 1-Ethyl-6-(1-ethynylcyclohexylamino)-7-methyl-4-oxo-1,4-dihydro[1,8]naphthyridine-3-carboxylic acid], the inhibition at 10 µM was determined as 35%.
